Data as given in patent publication US20230288402A1, “MOLECULES TARGETING RIBOSOMAL PROTEIN RPL35/UL29 FOR USE IN THE TREATMENT OF DISEASES, IN PARTICULAR EPIDERMOLYSIS BULLOSA (EB)” (KBHB CONSULT GMBH, priority 2020, published 2023).

Key:
laminin 332 = conditions: primary keratinocytes from three GS-JEB patients; cited from earlier work
[1] = system: Lamb3 protein with the R635XPTC mutation; conditions: very high, therapeutically not applicable dose; cited from earlier work
FF-PTC = test: In-vivo dual luciferase reporter read-out in yeast cells, FF-PTC reporter; assay type: cell-based; conditions: erythromycin 4 μM; indicator of lack of specific activity
Procedure: (§1) Luciferase read-out data are represented normalized to the individual luciferase reporter (Lamb3-FF, Lamb3-PTC-FF, FF, and FF-PTC) of a respective control in the untreated state set at 100% (normalizer). Twelve biological replicates (n=12) for all detections. Normalization for treatment is shown, additional controls were run, but are not shown. Dosages: ART 2 μM, ATZ 1.6 nM and erythromycin 4 μM, respectively. Combination treatment […] are 50 nM and 0.08 nM, respectively, i.e. 40-fold and 20-fold less than individually applied compounds.

Lamb3-PTC-FF = test: In-vivo dual luciferase reporter read-out in yeast cells, Lamb3-PTC-FF reporter; assay type: cell-based; conditions: normalized to untreated control
Source text: (§2) Luciferase read-out data are represented normalized to the individual luciferase reporter (Ren, Lamb3-FF, Lamb3-PTC-FF) read-outs in the untreated state set at 100% (normalizer); for renilla control—the untreated state—mean and standard deviation of quantifications from twelve biological replicates, each with six technical replicates (72 reads), are shown. For Lamb3-FF control—the untreated state—mean and standard deviation of quantifications from six biological replicates, each with six technical replicates (36 reads), are shown. For Lamb3-PTC control—the untreated state—mean and standard deviation of quantifications from two biological replicates, each with six technical replicates (12 reads), are shown. Quantification upon treatment with ART and ATZ, respectively, for both, Ren (216 reads) and Lamb3-FF (105 reads), is shown by combining read-out data obtained by treatment with 2, 4, and 10 μM ART and ATZ (treated), respectively, and is normalized to the respective untreated control (normalizer). For luciferase reporter read-outs of Lamb3-PTC-FF treated with 2 μM, 4 μM and 10 μM ART and 2, 4, and 10 nM ATZ, respectively, mean and standard deviation of quantification from two biological replicates for ART (12 reads) and three biological replicates for ATZ (18 reads), with six technical replicates each, are shown normalized to Lamb3-PTC-FF control.
as §1
The inventors opted to first test small molecule action in the versatile yeast cell factory, employing the dual luciferase reporter system used in the original 2-SSRS (Bauer et al., 2013).

human rpL35 [2] = target: T1, human rpL35 (Homo sapiens, UniProt P42766); conditions: cited from earlier work
[3] = system: renilla luciferase reporter; test: In-vivo dual luciferase reporter read-out in yeast cells, renilla luciferase reporter; assay type: cell-based; conditions: combined read-outs of 2, 4 and 10 μM
Source text: as §2, with “control. […]” for “control.”

Lamb3-FF = test: In-vivo dual luciferase reporter read-out in yeast cells, Lamb3-FF reporter; assay type: cell-based; conditions: for protein expression level of Lamb3-FF luciferase reporter upon small molecule treatment: combined read-outs of 2, 4 and 10 μM; for increase for Lamb3-FF protein expression: not significant
Source text: as §2
Obtaining evidence for drug directed manipulation of rpL35 to selectively increase full-length Lamb3-PTC expression has to be tested in functional assays. The inventors opted to first test small molecule action in the versatile yeast cell factory, employing the dual luciferase reporter system used in the original 2-SSRS (Bauer et al., 2013).

human rpL35 [4] = target: T1, human rpL35; test: NMR titration series (2D 1H,15N HSQC) of 15N rpL35-His6 with ligand; assay type: binding; parameters: MBP (N, cleaved yes); made in house; host or cells: E. coli BL21; conditions: for number of amide signals with significant chemical shift perturbations: HSQC spectrum upon ligand addition; for binding to human rpL35 by NMR titration: changes in NMR spectra in presence of small molecule
Procedure: NMR experiments were recorded at 25° C. (298K) on a 700 MHz Bruker Ascend spectrometer equipped with cryogenically cooled TCI probe. All spectra were processed using Topspin 3.5 and analyzed with CARA 1.8.4.2. (Keller R. Optimizing the Process of Nuclear Magnetic Resonance Spectrum Analysis and Computer Aided Resonance Assignment. ETH Zurich; 2004) and NMRFAM-Sparky (Lee W, Tonelli M, Markley J L. NMRFAM-SPARKY: enhanced software for biomolecular NMR spectroscopy. Bioinformatics. 2015 Apr. 15; 31(8):1325-7). Concentration of ^15N labeled rpL35-His6 ranged from 200 to 400 μM and the sample was measured in a salt tolerant susceptibility matched slot tube (Shigemi™) with total volume of 170 μl.
NMR spectroscopy is able by comparative analysis of protein vs. protein+small molecule binder to asses binding sites of the small molecule on the protein. In this initial study the affinity of rpL35 towards artesunate and atazanavir was established by a simple titration series in which the inventors have been tracking perturbations to chemical shifts and peak heights in the 2D ^1H, ^15N HSQC spectrum. Aliquots of artesunate/atazanavir were added into the solution of ^15N rpL35 of which 2D 1H, ^15N HSQC spectrum was recorded immediately upon ligand addition. Perturbations of protein chemical shifts in ^15N HSQC spectrum are indicative of changes to the chemical environment of amide groups caused by binding of a ligand to the protein target.
Following the artesunate-protein rpL35 complex titration, the inventors have recorded 3D spectra of the same sample using ^15N NOESY-HSQC, ^15N TOCSY-HSQC, HNHA pulse sequences. The inventors extracted chemical shifts of amide ^1H, ^15N, HA, HB from the above mentioned spectra, and compared measured values with the average chemical shifts of common amino acids in Biological Magnetic resonance Data Bank (BMRB; http://www.bmrb.wisc.edu). In the 3D ^1H, ^15N NOESY-HSQC the inventors focused also on the presence of water signal which can indicate if the amino group is solvent accessible. […] However, collection of the basic set of chemical shifts mentioned earlier allowed the inventors to estimate amino acid type since many of them have quite characteristic values (e. g. alanine, threonine, and glycine). 3D ^15N TOCSY-HSQC helped the inventors to differentiate between amino acid types which have similar NH chemical shifts, such as leucine, lysine, valine. […] Using this approach the inventors obtained a set of protein signals which changed their position in 2D ^1H^15N-HSQC spectrum upon interaction with the ligand (artesunate, atazanavir) and information on the most probable amino acid type. […]

Lamb3PTC = test: Hela in vitro translation assays; assay type: biochemical, human

Compound | induction of functional laminin 332 (laminin 332) | Lamb3 protein expression relative to normal level [1] [%] | FF-PTC reporter read-out upon treatment (FF-PTC) | increase in full-length Lamb3-PTC-FF protein expression (Lamb3-PTC-FF; treatment with 2 μM) [fold] | binding to human rpL35 in biotinylation assay (human rpL35 [2]) | protein expression level of renilla luciferase reporter upon small molecule treatment [3] | protein expression level of Lamb3-FF luciferase reporter upon small molecule treatment (Lamb3-FF) | increase for Lamb3-FF protein expression (Lamb3-FF; treatment with 4 μM) | increase for Lamb3-FF protein expression (Lamb3-FF; treatment with 10 μM) [fold] | number of amide signals with significant chemical shift perturbations (human rpL35 [4]) | binding to human rpL35 by NMR titration (human rpL35 [4]) | Lamb3PTC expression (Lamb3PTC) | increase in full-length Lamb3-PTC-FF protein expression (Lamb3-PTC-FF; treatment with 4 μM) [fold] | increase in full-length Lamb3-PTC-FF protein expression (Lamb3-PTC-FF; treatment with 10 μM) [fold]
gentamicin | induced functional laminin 332 | 30 |  |  |  |  |  |  |  |  |  |  |  | 
CC[C@H]1OC(=O)[C@H](C)[C@@H](O[C@H]2C[C@@](C)(OC)[C@@H](O)[C@H](C)O2)[C@H](C)[C@@H](O[C@@H]2O[C@H](C)C[C@H](N(C)C)[C@H]2O)[C@](C)(O)C[C@@H](C)C(=O)[C@H](C)[C@@H](O)[C@]1(C)O [erythromycin] |  |  | increase |  |  |  |  |  |  |  |  |  |  | 
C[C@H]1[C@H](OC(=O)CCC(=O)O)O[C@@H]2O[C@@]3(C)CC[C@H]4[C@H](C)CC[C@@H]1[C@@]24OO3 [artesunate] |  |  |  | 2.2 | binder of human rpL35 | no significant increase | no significant increase | 1,1 fold | 1.2 | 10 | bind human rpL35 protein at several possible binding pockets | increase |  | 
COC(=O)N[C@H](C(=O)N[C@@H](Cc1ccccc1)[C@@H](O)CN(Cc1ccc(-c2ccccn2)cc1)NC(=O)[C@@H](NC(=O)OC)C(C)(C)C)C(C)(C)C [atazanavir] |  |  |  | 1.8 |  | no significant increase | no significant increase |  |  | 5 | bind human rpL35 protein at several possible binding pockets | increase | 1.9 | 2.2
